According to patent publication US20230203060A1 (GENFLEET THERAPEUTICS (SHANGHAI) INC., priority 2020, published 2023):

What follows are compounds tested against T1, KRAS G12C (Homo sapiens, UniProt P01116, G12C) (assay: KRAS G12C NEA-HTRF experiment (SOS1-catalyzed displacement of GDP by GTP)).
T1 construct: purchased Reactionbiology
T1 sequence (P01116 1-188 isoform P01116-2 G12C): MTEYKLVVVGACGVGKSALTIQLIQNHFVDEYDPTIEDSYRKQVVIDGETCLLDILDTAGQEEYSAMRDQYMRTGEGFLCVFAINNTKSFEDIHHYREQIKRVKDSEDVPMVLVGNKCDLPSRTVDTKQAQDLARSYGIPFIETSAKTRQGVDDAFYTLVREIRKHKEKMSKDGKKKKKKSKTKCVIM
Assay type: biochemical
Summary of the method: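 His-tagged KRAS G12C preloaded with DY647-GDP was preincubated 15 min at 20 °C with compound, then exchanged with SOS1 (0.2 μM working solution) and GTP (200 μM working solution) for 2 h at 20 °C in the dark. HTRF 665/615 nm ratio with anti-His-Tb was normalised to T0 and no-compound controls; IC50 by four-parameter fit.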
Compound C=CC(=O)N1CCN2C(=O)c3c(N4C[C@H](N(C)CCO)CC4(C)C)nc(-c4ccccc4F)c(Cl)c3OC[C@H]2C1 (single isomer, unassigned) [Z658-2] has an IC50 of 142 nM.
C=CC(=O)N1CCN2C(=O)c3c(N4C[C@@H](NC)CC4(C)C)nc(-c4ccccc4F)c(Cl)c3OC[C@H]2C1 (single isomer, unassigned) [Z661-1] gave an IC50 of 33.5 nM.
In the case of C=CC(=O)N1CCN2C(=O)c3c(N4C[C@@H](N(C)CC(F)F)CC4(C)C)nc(-c4ccccc4F)c(Cl)c3OC[C@H]2C1 (single isomer, unassigned) [Z659-1], the IC50 is reported as 77.2 nM.
C=CC(=O)N1CCN2C(=O)c3c(N4C[C@@H](N5CC(OC)C5)CC4(C)C)nc(-c4ccccc4F)c(Cl)c3OC[C@H]2C1 [Z479-1, (R)-8-acryloyl-4-chloro-3-(2-fluorophenyl)-1-((S)-4-(3-methoxyazetidin-1-yl)-2,2-dimethylpyrrolidin-1-yl)-6,6a,7,8,9,10-hexahydro-12H-pyrazino[2,1-c]pyrido[3,4-f][1,4]oxazepin-12-one] showed an IC50 of 65.2 nM.
With C=CC(=O)N1CCN2C(=O)c3c(N4C[C@H](N5CCC5)CC4(C)C)nc(-c4ccccc4F)c(Cl)c3OC[C@H]2C1 (single isomer, unassigned) [Z471-2] the IC50 was 461 nM.
Compound C=CC(=O)N1CCN2C(=O)c3c(N4C[C@H](N5CC(F)C5)CC4(C)C)nc(-c4ccccc4F)c(F)c3OC[C@H]2C1 [Z654-2, (R)-8-acryloyl-4-fluoro-1-((R)-4-(3-fluoroazetidin-1-yl)-2,2-dimethylpyrrolidin-1-yl)-3-(2-fluorophenyl)-6,6a,7,8,9,10-hexahydro-12H-pyrazino[2,1-c]pyrido[3,4-f][1,4]oxazepin-12-one] has an IC50 of 168 nM.
For C=CC(=O)N1CCN2C(=O)c3c(N4C[C@@H](C(=O)O)CC4(C)C)nc(-c4c(O)cccc4F)c(Cl)c3OC[C@H]2C1 (single isomer, unassigned) [Z458-1], the IC50 was 8.8 nM.
Work on C=CC(=O)N1CCN2C(=O)c3c(N4CCN(C)C[C@@H]4C)nc(-c4ccccc4F)c(Cl)c3OC[C@H]2C1 [Z407-1, (R)-8-acryloyl-4-chloro-1-((S)-2,4-dimethylpiperazin-1-yl)-3-(2-fluorophenyl)-6,6a,7,8,9,10-hexahydro-12H-pyrazino[2,1-c]pyrido[3,4-f][1,4]oxazepin-12-one] yielded an IC50 of 262 nM.
C=CC(=O)N1CCN2C(=O)c3c(N4CC[C@@H](N(C)C)C4(C)C)nc(-c4ccccc4F)c(Cl)c3OC[C@H]2C1 [Z502-1, (6aR)-8-acryloyl-4-chloro-1-(3-(dimethylamino)-2,2-dimethylpyrrolidin-1-yl)-3-(2-fluorophenyl)-6,6a,7,8,9,10-hexahydro-12H-pyrazino[2,1-c]pyrido[3,4-f][1,4]oxazepin-12(6aH)-one] gave an IC50 of 280 nM.
C=CC(=O)N1CCN2C(=O)c3c(N4CC(N5CCN(C)CC5)CC4(C)C)nc(-c4c(O)cccc4F)c(Cl)c3OC[C@H]2C1 (stereo partly drawn) [Z467, (6aR)-8-acryloyl-4-chloro-1-(2,2-dimethyl-4-(4-methylpiperazin-1-yl)pyrrolidin-1-yl)-3-(2-fluoro-6-hydroxyphenyl)-6,6a,7,8,9,10-hexahydro-12H-pyrazino[2,1-c]pyrido[3,4-f][1,4]oxazepin-12-one] gave an IC50 of 7.7 nM.
In the case of C=CC(=O)N1CCN2C(=O)c3c(N4CCN(C)C[C@@H]4C)nc(-c4c(O)cccc4F)c(Cl)c3OC[C@H]2C1 [Z51, (6aR)-8-acryloyl-4-chloro-1-((S)-2,4-dimethylpiperazin-1-yl)-3-(2-fluoro-6-hydroxyphenyl)-6,6a,7,8,9,10-hexahydro-12H-pyrazino[2,1-c]pyrido[3,4-f][1,4]oxazepin-12-one], the IC50 is reported as 142 nM.
C=CC(=O)N1CCN2C(=O)c3c(N4C[C@H](N5CCN(C)CC5)CC4(C)C)nc(-c4ccccc4F)c(Cl)c3OC[C@H]2C1 (single isomer, unassigned) [Z454-2] showed an IC50 of 35.5 nM.
In the case of C=CC(=O)N1CCN2C(=O)c3c(N4C[C@H](N5CC(C(F)(F)F)C5)CC4(C)C)nc(-c4ccccc4F)c(Cl)c3OC[C@H]2C1 (single isomer, unassigned) [Z608-1], the IC50 is reported as 610 nM.
C=CC(=O)N1CCN2C(=O)c3c(N4CC(N5CCC(F)(F)C5)CC4(C)C)nc(-c4ccccc4F)c(Cl)c3OC[C@H]2C1 (stereo partly drawn) [Z532, (6aR)-8-acryloyl-4-chloro-1-(3,3-difluoro-5′,5′-dimethyl-[1,3′-bipyrrolidin]-1′-yl)-3-(2-fluorophenyl)-6,6a,7,8,9,10-hexahydro-12H-pyrazino[2,1-c]pyrido[3,4-f][1,4]oxazepin-12-one] gave an IC50 of 44 nM.
For C=CC(=O)N1CCN2C(=O)c3c(N4C[C@H](N5CCN(C)CC5)CC4(C)C)nc(-c4c(F)cccc4Cl)c(Cl)c3OC[C@H]2C1 (single isomer, unassigned) [Z635-2], the IC50 was 113 nM.
For C=CC(=O)N1CCN2C(=O)c3c(N4CC(N(C)C)CC4(C)C)nc(-c4ccccc4F)c(Cl)c3OC[C@H]2C1 (single isomer, unassigned) [Z453-2], the IC50 was 120 nM.
For C=CC(=O)N1CCN2C(=O)c3c(N4CCOC(C)(C)C4)nc(-c4c(O)cccc4F)c(Cl)c3OC[C@H]2C1 [Z37, (6aR)-8-acryloyl-4-chloro-1-(2,2-dimethylmorpholino)-3-(2-fluoro-6-hydroxyphenyl)-6,6a,7,8,9,10-hexahydro-12H-pyrazino[2,1-c]pyrido[3,4-f][1,4]oxazepin-12-one], the IC50 was 167 nM.
C=CC(=O)N1CCN2C(=O)c3c(N4CCN(C)C[C@@H]4C)nc(-c4c(F)cccc4C(F)F)c(Cl)c3OC[C@H]2C1 [Z456, (6aR)-8-acryloyl-4-chloro-3-(2-(difluoromethyl)-6-fluorophenyl)-1-((S)-2,4-dimethylpiperazin-1-yl)-6,6a,7,8,9,10-hexahydro-12H-pyrazino[2,1-c]pyrido[3,4-f][1,4]oxazepin-12-one] was tested, and the IC50 was 147 nM.
C=CC(=O)N1CCN2C(=O)c3c(N4CC(C(=O)O)CC4(C)C)nc(-c4c(O)cccc4F)c(Cl)c3OC[C@H]2C1 (stereo partly drawn) [Z458, 1-((6aR)-8-acryloyl-4-chloro-3-(2-fluoro-6-hydroxyphenyl)-12-oxo-6,6a,7,8,9,10-hexahydro-12H-pyrazino[2,1-c]pyrido[3,4-f][1,4]oxazepin-1-yl)-5,5-dimethylpyrrolidine-3-carboxylic acid] showed an IC50 of 13.9 nM.
For C=CC(=O)N1CCN2C(=O)c3c(N4CC(N(C)CC(F)(F)F)CC4(C)C)nc(-c4ccccc4F)c(Cl)c3OC[C@H]2C1 (mixture of isomers) [Z491a, (6aR)-8-acryloyl-4-chloro-1-(2,2-dimethyl-4-(methyl(2,2,2-trifluoroethyl)amino)pyrrolidin-1-yl)-3-(2-fluorophenyl)-6,6a,7,8,9,10-hexahydro-12H-pyrazino[2,1-c]pyrido[3,4-f][1,4]oxazepin-12-one], the IC50 was 15 nM.
With C=CC(=O)N1CCN2C(=O)c3c(N4C[C@@H](N(C)C)CC4(C)C)nc(-c4c(F)ccc(F)c4O)c(Cl)c3OC[C@H]2C1 [Z475-1, (6aR)-8-acryloyl-4-chloro-3-(3,6-difluoro-2-hydroxyphenyl)-1-((S)-4-(dimethylamino)-2,2-dimethylpyrrolidin-1-yl)-6,6a,7,8,9,10-hexahydro-12H-pyrazino[2,1-c]pyrido[3,4-f][1,4]oxazepin-12-one] the IC50 was 22.5 nM.
For C=CC(=O)N1CCN2C(=O)c3c(N4C[C@@H](N5CCN(C)CC5)CC4(C)C)nc(-c4c(F)cccc4Cl)c(Cl)c3OC[C@H]2C1 (single isomer, unassigned) [Z635-1], the IC50 was 22.7 nM.
C=CC(=O)N1CCN2C(=O)c3c(N4CC(N(C)C)CC4(C)C)nc(-c4cccc(F)c4F)c(Cl)c3OC[C@H]2C1 (single isomer, unassigned) [Z473-2] gave an IC50 of 76.8 nM.
Work on C=CC(=O)N1CCN2C(=O)c3c(N4CCC[C@H]4C)nc(-c4c(O)cccc4F)c(Cl)c3OC[C@H]2C1 [Z48, (6aR)-8-acryloyl-1-((R)-2-methylpyrrolidin-1-yl)-4-chloro-3-(2-fluoro-6-hydroxyphenyl)-6,6a,7,8,9,10-hexahydro-12H-pyrazino[2,1-c]pyrido[3,4-f][1,4]oxazepin-12-one] yielded an IC50 of 150 nM.
C=CC(=O)N1CCN2C(=O)c3c(N4C[C@@H](NCC(F)(F)F)CC4(C)C)nc(-c4ccccc4F)c(Cl)c3OC[C@H]2C1 (single isomer, unassigned) [Z662-1] gave an IC50 of 23.4 nM.
C=CC(=O)N1CCN2C(=O)c3c(N4C[C@@H](N5CC(F)(F)C5)CC4(C)C)nc(-c4ccccc4F)c(Cl)c3OC[C@H]2C1 (single isomer, unassigned) [Z525-2] was tested, and the IC50 was 38.5 nM.
In the case of C=CC(=O)N1CCN2C(=O)c3c(N4CCN(C)C[C@@H]4C)nc(-c4c(F)cccc4OC)c(F)c3OC[C@H]2C1 [Z451, (6aR)-8-acryloyl-1-((S)-2,4-dimethylpiperazin-1-yl)-4-fluoro-3-(2-fluoro-6-methoxyphenyl)-6,6 a,7,8,9,10-hexahydro-12H-pyrazino[2,1-c]pyrido[3,4-f][1,4]oxazepin-12 (6 aH)-one], the IC50 is reported as 3000 nM.
With C=CC(=O)N1CCN2C(=O)c3c(N4CC(N5CCN(C)CC5)CC4(C)C)nc(-c4ccccc4F)c(F)c3OC[C@H]2C1 (stereo partly drawn) [Z474, (6aR)-8-acryloyl-1-(2,2-dimethyl-4-(4-methylpiperazin-1-yl)pyrrolidin-1-yl)-4-fluoro-3-(2-fluorophenyl)-6,6a,7,8,9,10-hexahydro-12H-pyrazino[2,1-c]pyrido[3,4-f][1,4]oxazepin-12-one] the IC50 was 105 nM.
Compound C=CC(=O)N1CCN2C(=O)c3c(N4CCN(C(=O)CC)C[C@@H]4C)nc(-c4ccccc4F)c(Cl)c3OC[C@H]2C1 [Z477, (R)-8-acryloyl-4-chloro-3-(2-fluorophenyl)-1-((S)-2-methyl-4-propionylpiperazin-1-yl)-6,6a,7,8,9,10-hexahydro-12H-pyrazino[2,1-c]pyrido[3,4-f][1,4]oxazepin-12(6aH)-one] has an IC50 of 57 nM.
C=CC(=O)N1CCN2C(=O)c3c(N4CC(N(C)CC(F)F)CC4(C)C)nc(-c4ccccc4F)c(Cl)c3OCC2C1 (single isomer, unassigned) [Z659-2] gave an IC50 of 9.3 nM.
In the case of C=CC(=O)N1CCN2C(=O)c3c(N4CCN(C)C[C@@H]4C)nc(C#CC)c(Cl)c3OC[C@H]2C1 [Z459, (R)-8-acryloyl-4-chloro-1-((S)-2,4-dimethylpiperazin-1-yl)-3-(prop-1-yn-1-yl)-6,6a,7,8,9,10-hexahydro-12H-pyrazino[2,1-c]pyrido[3,4-f][1,4]oxazepin-12-one], the IC50 is reported as 9410 nM.
